Here are results for 14 molecules from patent US20260035364A1, “BICYCLIC TETRAHYDROTHIAZEPINE DERIVATIVES” (Hoffmann-La Roche Inc., priority 2022, published 2026).

In this test the test system is primary human T-cells. As to the kind of experiment: IL2 secretion measurements in CD3-stimulated T-cells. Format: cell-based. Particulars: Homo sapiens, T-cell, 24 h, CD3 condition; for Emax: IL2 after 24 hours, 20 μM reference compound A1 = 100%, read-out: Emax IL2 (% activation); for EC50: IL2 secretion after 24 hours, read-out: Tcell IL2 CD3 EC50. The method in brief: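 Expanded primary human T-cells (100k/well) were stimulated on CD3 antibody-coated or PBS-coated plates with compounds in 5–6 point dose response from 20 or 10 μM top final (dilution factor 3.333, 0.2% DMSO final). IL2 in 24 h supernatants was measured by ProQuantum immunoassay or ELISA, normalized to DMSO (0%) and 20 μM reference compound A1 (100%) to fit EC50 and Emax.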

In the case of `CC(C)(c1nnc(-c2ccc3c(c2)N(Cc2ccc(-c4ccc(C(F)(F)F)cc4)cc2)C(=O)[C@@H](N)CS3(=O)=O)o1)S(C)(=O)=O` [Example 56, (3R)-3-amino-7-[5-(1-methyl-1-methylsulfonyl-ethyl)-1,3,4-oxadiazol-2-yl]-1,1-dioxo-5-[[4-[4-(trifluoromethyl)phenyl]phenyl]methyl]-2,3-dihydro-1λ6,5-benzothiazepin-4-one], the Emax is 120% and the concentration giving a half-maximal response (EC50) turned out to be 741 nM.
For `CC(C)(c1nnc(-c2ccc3c(c2)N(Cc2ccc(-c4ccc(C(F)(F)F)cc4)nc2)C(=O)[C@@H](N)CS3(=O)=O)o1)S(C)(=O)=O` [Example 57, (3R)-3-amino-7-[5-(1-methyl-1-methylsulfonyl-ethyl)-1,3,4-oxadiazol-2-yl]-1,1-dioxo-5-[[6-[4-(trifluoromethyl)phenyl]-3-pyridyl]methyl]-2,3-dihydro-1λ6,5-benzothiazepin-4-one] the same measures were 53% and 9140 nM.
With `CC1(c2nnc(-c3ccc4c(c3)N(Cc3ccc(Oc5ccccc5)cc3)C(=O)[C@@H](N)CS4(=O)=O)o2)CCCS1(=O)=O` (stereo partly drawn) [Example 58, (3R)-3-amino-7-[5-(2-methyl-1,1-dioxo-thiolan-2-yl)-1,3,4-oxadiazol-2-yl]-1,1-dioxo-5-[(4-phenoxyphenyl)methyl]-2,3-dihydro-1λ6,5-benzothiazepin-4-one], the Emax amounted to 136% and the EC50 is 2930 nM.
The like results for `CC(C)(c1nc(-c2cc3c(cc2F)S(=O)(=O)C[C@H](N)C(=O)N3Cc2ccc(OCc3nc(C(F)(F)F)no3)cc2)no1)S(C)(=O)=O` [Example 59, (3R)-3-amino-8-fluoro-7-[5-(1-methyl-1-methylsulfonyl-ethyl)-1,2,4-oxadiazol-3-yl]-1,1-dioxo-5-[[4-[[3-(trifluoromethyl)-1,2,4-oxadiazol-5-yl]methoxy]phenyl]methyl]-2,3-dihydro-1λ6,5-benzothiazepin-4-one] were, in that order, 135% and 4270 nM.
For `CC(C)(c1nnc(-c2ccc3c(c2)N(Cc2ccc(Oc4cccc(Br)c4)cc2)C(=O)[C@@H](N)CS3(=O)=O)o1)S(C)(=O)=O` [Example 60, (3R)-3-amino-5-[[4-(3-bromophenoxy)phenyl]methyl]-7-[5-(1-methyl-1-methylsulfonyl-ethyl)-1,3,4-oxadiazol-2-yl]-1,1-dioxo-2,3-dihydro-1λ6,5-benzothiazepin-4-one] the same measures were 106% and 1180 nM.
For `CC(C)(c1nnc(-c2ccc3c(c2)N(Cc2ccc(Oc4ccccc4)cc2)C(=O)[C@@H](N)CS3(=O)=O)o1)S(=O)(=O)C1CC1` [Example 61, (3R)-3-amino-7-[5-(1-cyclopropylsulfonyl-1-methyl-ethyl)-1,3,4-oxadiazol-2-yl]-1,1-dioxo-5-[(4-phenoxyphenyl)methyl]-2,3-dihydro-1λ6,5-benzothiazepin-4-one] the same measures were 89% and 4210 nM.
On to `COCC(C)(C)Oc1ccc(CN2C(=O)[C@@H](N)CS(=O)(=O)c3cc(F)c(-c4noc(C(C)(C)S(C)(=O)=O)n4)cc32)cc1` [Example 62, (3R)-3-amino-8-fluoro-5-[[4-(2-methoxy-1,1-dimethyl-ethoxy)phenyl]methyl]-7-[5-(1-methyl-1-methylsulfonyl-ethyl)-1,2,4-oxadiazol-3-yl]-1,1-dioxo-2,3-dihydro-benzothiazepin-4-one], for which the Emax stood at 169% and the EC50 stood at 3350 nM.
In the case of `COc1ccc(-c2ccc(CN3C(=O)[C@@H](N)CS(=O)(=O)c4ccc(-c5noc(C(C)(C)S(C)(=O)=O)n5)cc43)cc2)cc1` [Example 63, (3R)-3-amino-5-[[4-(4-methoxyphenyl)phenyl]methyl]-7-[5-(1-methyl-1-methylsulfonyl-ethyl)-1,2,4-oxadiazol-3-yl]-1,1-dioxo-2,3-dihydro-1λ6,5-benzothiazepin-4-one], the Emax was found to be 57% and the EC50 amounted to 381 nM.
The like results for `CC(C)(c1nnc(-c2ccc3c(c2)N(Cc2ccc(OC(F)(F)F)cc2)C(=O)[C@@H](N)CS3(=O)=O)o1)S(C)(=O)=O` [Example 64, (3R)-3-amino-7-[5-(1-methyl-1-methylsulfonyl-ethyl)-1,3,4-oxadiazol-2-yl]-1,1-dioxo-5-[[4-(trifluoromethoxy)phenyl]methyl]-2,3-dihydro-126,5-benzothiazepin-4-one] were, in that order, 55% and 2490 nM.
Take `CN(C)S(=O)(=O)C(C)(C)c1nnc(-c2ccc3c(c2)N(Cc2ccc(-c4ccc(C(F)(F)F)cc4)cc2)C(=O)[C@@H](N)CS3(=O)=O)o1` [Example 65, 2-[5-[(3R)-3-amino-1,1,4-trioxo-5-[[4-[4-(trifluoromethyl)phenyl]phenyl]methyl]-2,3-dihydro-1λ6,5-benzothiazepin-7-yl]-1,3,4-oxadiazol-2-yl]-N,N-dimethyl-propane-2-sulfonamide]: the Emax stood at 85% and the EC50 was found to be 3160 nM.
For `CS(=O)(=O)C1(c2nnc(-c3ccc4c(c3)N(Cc3ccc(Oc5ccccc5)cc3)C(=O)[C@@H](N)CS4(=O)=O)o2)CC1` [Example 66, (3R)-3-amino-7-[5-(1-methylsulfonylcyclopropyl)-1,3,4-oxadiazol-2-yl]-1,1-dioxo-5-[(4-phenoxyphenyl)methyl]-2,3-dihydro-1λ6,5-benzothiazepin-4-one] the same measures were 52% and 9170 nM.
The like results for `CC(C)(c1nnc(-c2ccc3c(c2)N(Cc2ccc(-c4ccc(C(F)(F)F)cc4)cc2)C(=O)[C@@H](N)CS3(=O)=O)o1)S(=O)(=O)N1CCCC1` [Example 67, (3R)-3-amino-7-[5-(1-methyl-1-pyrrolidin-1-ylsulfonyl-ethyl)-1,3,4-oxadiazol-2-yl]-1,1-dioxo-5-[[4-[4-(trifluoromethyl)phenyl]phenyl]methyl]-2,3-dihydro-1λ6,5-benzothiazepin-4-one] were, in that order, 71% and 1760 nM.
For `CS(=O)(=O)C1(c2nnc(-c3ccc4c(c3)N(Cc3ccc(Oc5ccccc5)cc3)C(=O)[C@@H](N)CS4(=O)=O)o2)CCC1` [Example 68, (3R)-3-amino-7-[5-(1-methylsulfonylcyclobutyl)-1,3,4-oxadiazol-2-yl]-1,1-dioxo-5-[(4-phenoxyphenyl)methyl]-2,3-dihydro-1λ6,5-benzothiazepin-4-one] the same measures were 41% and 2200 nM.
Take `CC(C)(c1nnc(-c2ccc3c(c2)N(Cc2ccc(-c4ccc(OC(F)(F)F)cn4)cc2)C(=O)[C@@H](N)CS3(=O)=O)o1)S(C)(=O)=O` [Example 69, (3R)-3-amino-1,1-diketo-7-[5-(1-mesyl-1-methyl-ethyl)-1,3,4-oxadiazol-2-yl]-5-[4-[5-(trifluoromethoxy)-2-pyridyl]benzyl]-2,3-dihydro-1λ6,5-benzothiazepin-4-one]: the maximal response (Emax) turned out to be 97% and the concentration giving a half-maximal response (EC50) was 497 nM.

Usually Emax stands for the size of the effect at its maximum, as opposed to the concentration needed. By EC50 is commonly meant the concentration giving half of the maximal effect.
